In one assay the test system is MV-4-11 cells. In words: Oncology cell growth assay MV-4-11 (CellTiter Glo). As to conditions: Homo sapiens, MV4-11, 72 h; MV-4-11, 3d growth; read-out: Cell activity (IC50 μM) MV-4-11 3d-Growth. It counts as cell-based. The gist of the method: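 MV-4-11 AML cells (MLL-AF4), 3000 per well, exposed to 8-point 1:3 compound titration from 10 μM top concentration (0.2% DMSO) for 72 h. Viability by CellTiter Glo luminescence, normalized to DMSO controls; pIC50 from four-parameter curve fit.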
For orientation: Cellular ATP, detected with luciferase, serves as a proxy for viable cell number.

The target of another assay is BRD4-BD12 (1-477) (Homo sapiens (Human), UniProt O60885). The assay is described as follows: Alphascreen binding assay BRD4-BD12. The settings on record: BRD4(1 2) H4; read-out: Biochemical activity (IC50 μM) BRD4(1 2) H4. The gist of the method: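 First, compound was preincubated 1 h at room temperature with the His-tagged BRD4 protein (BD1 44-164 or tandem BD12 1-477) and acetylated H4 peptide. Next, donor and acceptor beads were added at 7.5 μg/ml final. After 30 min, AlphaScreen emission was recorded.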
For orientation: In Alpha technology, singlet oxygen from a donor bead excites a nearby acceptor bead.

The subject of the next assay is bromodomain. In words: at least one of the bromodomain cell assays of Example 57. It counts as cell-based. As to conditions: at least one of the bromodomain cell assays described in Example 57; read-out: IC50 in at least one of the bromodomain cell assays.

This note sets out measurements from patent US10519177B2, “Heterocyclic compounds and uses thereof” (Plexxikon Inc., priority 2013, dated 2019).

A word on the IC50: it is the midpoint of a concentration-inhibition curve.

Where only a bound is given, the exact number is not on record here.

`Cc1noc(C)c1-c1cnc2c(-c3ccc([N+](=O)[O-])nc3)cn(CC3CCC(F)(F)CC3)c2c1` [P-0599, 4-[1-[(4,4-difluorocyclohexyl)methyl]-3-(6-nitro-3-pyridyl)pyrrolo[3,2-b]pyridin-6-yl]-3,5-dimethyl-isoxazole]: the IC50 in the assay with MV-4-11 cells is less than 1 µM; at BRD4-BD12 (1-477), less than 1 µM; with bromodomain, less than 10000 nM.

On to `Cc1noc(C)c1-c1cnc2c(-c3ccc(C=O)cc3)cn(CC3CCC(F)(F)CC3)c2c1` [P-0600, 4-[1-[(4,4-difluorocyclohexyl)methyl]-6-(3,5-dimethylisoxazol-4-yl)pyrrolo[3,2-b]pyridin-3-yl]benzaldehyde], for which the IC50 with MV-4-11 cells is less than 1 µM; at BRD4-BD12 (1-477) it was less than 1 µM; in the assay with bromodomain, less than 10000 nM.

Regarding `Cc1noc(C)c1-c1cnc2c(-c3ccc(CO)cc3)cn(CC3CCC(F)(F)CC3)c2c1` [P-0601, [4-[1-[(4,4-difluorocyclohexyl)methyl]-6-(3,5-dimethylisoxazol-4-yl)pyrrolo[3,2-b]pyridin-3-yl]phenyl]methanol], the IC50 in the assay with MV-4-11 cells is less than 1 µM; on BRD4-BD12 (1-477), less than 1 µM; in the assay on bromodomain, less than 10000 nM.

Take `COC(=O)c1ccc(-c2cn(CC3CC4(CCC4)C3)c3cc(-c4c(C)noc4C)cnc23)cc1` [P-0602, methyl 4-[6-(3,5-dimethylisoxazol-4-yl)-1-(spiro[3.3]heptan-6-ylmethyl)pyrrolo[3,2-b]pyridin-3-yl]benzoate]: the IC50 in the assay with MV-4-11 cells is less than 1 µM; at BRD4-BD12 (1-477), less than 1 µM; with bromodomain, less than 10000 nM.

Turning to `Cc1ccc(-c2cn(CC3CCC(F)(F)CC3)c3cc(-c4c(C)noc4C)cnc23)cc1` [P-0604, 4-[1-[(4,4-difluorocyclohexyl)methyl]-3-(p-tolyl)pyrrolo[3,2-b]oyridin-6-yl]-3,5-dimethyl-isoxazole], the IC50 is less than 1 µM in the assay with MV-4-11 cells, less than 1 µM on BRD4-BD12 (1-477) and less than 10000 nM in the assay on bromodomain.

As to `COc1cc(-c2cn(CC3CCCCC3)c3cc(-c4c(C)noc4C)cnc23)ccc1C(=O)O` [P-0700, 4-[1-(cyclohexylmethyl)-6-(3,5-dimethylisoxazol-4-yl)pyrrolo[3,2-b]pyridin-3-yl]-2-methoxy-benzoic acid], the figures for the IC50 in the assay on MV-4-11 cells, at BRD4-BD12 (1-477) and in the assay with bromodomain were less than 1 µM, less than 1 µM and less than 10000 nM, respectively.

As to `COCc1ccc(-c2cn(CC3CCCCC3)c3cc(-c4c(C)noc4C)cnc23)cc1` [P-0705, 4-[1-(cyclohexylmethyl)-3-[4-(methoxymethyl)phenyl]pyrrolo[3,2-b]pyridin-6-yl]-3,5-dimethyl-isoxazole], the IC50 was less than 1 µM in the assay with MV-4-11 cells, less than 1 µM at BRD4-BD12 (1-477) and less than 10000 nM in the assay on bromodomain.

Take `Cc1noc(C)c1-c1cnc2c(-c3ccc(C(=O)OC(C)C)cc3)cn(CC3CCCCC3)c2c1` [P-0708, isopropyl 4-[1-(cyclohexylmethyl)-6-(3,5-dimethylisoxazol-4-yl)pyrrolo[3,2-b]pyridin-3-yl]benzoate]: the IC50 with MV-4-11 cells was less than 1 µM; at BRD4-BD12 (1-477) it was less than 1 µM; in the assay with bromodomain, less than 10000 nM.

With `Cc1noc(C)c1-c1cnc2c(-c3ccc([N+](=O)[O-])nc3)cn(CC3CCCCC3)c2c1` [P-0710, 4-[1-(cyclohexylmethyl)-3-(6-nitro-3-pyridyl)pyrrolo[3,2-b]pyridin-6-yl]-3,5-dimethyl-isoxazole], the values for the IC50 with MV-4-11 cells, on BRD4-BD12 (1-477) and in the assay on bromodomain were less than 1 µM, less than 1 µM and less than 10000 nM, respectively.

For `Cc1noc(C)c1-c1cnc2c(-c3ccc(C(=O)O)cc3)cn([C@@H](c3ccccc3)c3ccccn3)c2c1` [P-0711, 4-[6-(3,5-dimethylisoxazol-4-yl)-1-[(S)-phenyl(2-pyridyl)methyl]pyrrolo[3,2-b]pyridin-3-yl]benzoic acid], the IC50 is less than 1 µM with MV-4-11 cells, less than 1 µM at BRD4-BD12 (1-477) and less than 10000 nM in the assay on bromodomain.

Consider `Cc1noc(C)c1-c1cnc2c(-c3ccc(C(=O)O)cc3)cn([C@H](c3ccccc3)c3ccccn3)c2c1` [P-0722, 4-[6-(3,5-dimethylisoxazol-4-yl)-1-[(R)-phenyl(2-pyridyl)methyl]pyrrolo[3,2-b]pyridin-3-yl]benzoic acid], for which the results for the IC50 in the assay on MV-4-11 cells, on BRD4-BD12 (1-477) and in the assay with bromodomain were less than 1 µM, less than 1 µM and less than 10000 nM, respectively.

For the compound `Cc1noc(C)c1-c1cnc2c(-c3ccc(C(=O)O)cc3)cn(CC3(C)CCOCC3)c2c1` [P-0774, 4-[6-(3,5-dimethylisoxazol-4-yl)-1-[(4-methyltetrahydropyran-4-yl)methyl]pyrrolo[3,2-b]pyridin-3-yl]benzoic acid], the IC50 was less than 1 µM in the assay on MV-4-11 cells, less than 1 µM on BRD4-BD12 (1-477) and less than 10000 nM with bromodomain.

On to `COc1cc(-c2cn(CC3(C)CCOCC3)c3cc(-c4c(C)noc4C)cnc23)ccc1C(=O)O` [P-0775, 4-[6-(3,5-dimethylisoxazol-4-yl)-1-[(4-methyltetrahydrpyran-4-yl)methyl]pyrrolo[3,2-b]pyridin-3-yl]-2-methoxy-benzoic acid], for which the concentration for half-maximal inhibition (IC50) in the assay on MV-4-11 cells is less than 1 µM; on BRD4-BD12 (1-477), less than 1 µM; with bromodomain, less than 10000 nM.

Take `Cc1noc(C)c1-c1cnc2c(-c3ccc(CC(=O)O)cc3)cn(CC3(C)CCOCC3)c2c1` [P-0776, 2-[4-[6-(3,5-dimethylisoxazol-4-yl)-1-[(4-methyltetrahydrpyran-4-yl)methyl]pyrrolo[3,2-b]pyridin-3-yl]phenyl]acetic acid]: the figures for the IC50 in the assay with MV-4-11 cells, on BRD4-BD12 (1-477) and with bromodomain were 1 to 10 µM, less than 1 µM and less than 10000 nM, respectively.

As to `Cc1noc(C)c1-c1cnc2c(-c3ccc(C(C)(C)C(=O)O)cc3)cn(CC3(C)CCOCC3)c2c1` [P-0778, 2-[4-[6-(3,5-dimethylisoxazol-4-yl)-1-[(4-methyltetrahydropyran-4-yl)methyl]pyrrolo[3,2-b]pyridin-3-yl]phenyl]-2-methyl-propanoic acid], the results for the IC50 in the assay on MV-4-11 cells, on BRD4-BD12 (1-477) and with bromodomain were 1 to 10 µM, less than 1 µM and less than 10000 nM, respectively.

With `Cc1ccc(-c2cn(CC3(C)CCOCC3)c3cc(-c4c(C)noc4C)cnc23)cc1` [P-0794, 3,5-dimethyl-4-[1-[(4-methyltetrahydropyran-4-yl)methyl]-3-(p-tolyl)pyrrolo[3,2-b]pyridin-6-yl]isoxazole], the IC50 is 1 to 10 µM in the assay with MV-4-11 cells, less than 1 µM on BRD4-BD12 (1-477) and less than 10000 nM in the assay on bromodomain.

Consider `Cc1noc(C)c1-c1cnc2c(-c3ccc(C(C)(C)C)cc3)cn(CC3CCC(F)(F)CC3)c2c1` [P-0802, 4-[3-(4-tert-butylphenyl)-1-[(4,4-difluorocyclohexyl)methyl]pyrrolo[3,2-b]pyridin-6-yl]-3,5-dimethyl-isoxazole], for which the IC50 was 1 to 10 µM with MV-4-11 cells, less than 1 µM at BRD4-BD12 (1-477) and less than 10000 nM in the assay on bromodomain.

On to `Cc1ccc(-c2cn(Cc3ccccn3)c3cc(-c4c(C)noc4C)cnc23)cc1` [P-0805, 3,5-dimethyl-4-[3-(p-tolyl)-1-(2-pyridylmethyl)pyrrolo[3,2-b]pyridin-6-yl]isoxazole], for which the IC50 was less than 1 µM with MV-4-11 cells, less than 1 µM at BRD4-BD12 (1-477) and less than 10000 nM in the assay with bromodomain.

For the compound `Cc1noc(C)c1-c1cnc2c(-c3ccc(C(C)(C)C)cc3)cn([C@@H](C)c3ccccn3)c2c1` [P-0806, 4-[3-(4-tert-butylphenyl)-1-[(1S)-1-(2-pyridyl)ethyl]pyrrolo[3,2-b]pyridin-6-yl]-3,5-dimethyl-isoxazole], the results for the IC50 with MV-4-11 cells, at BRD4-BD12 (1-477) and in the assay with bromodomain were 1 to 10 µM, less than 1 µM and less than 10000 nM, respectively.
